≈ marks a conversion by molar mass, not a printed value.
What was measured:
[1] = solubility of ITI-007 free base in solvents; assay type: physicochemical
[2] = cited from earlier work
[3] = preliminary screen of dispersions by XRPD and appearance; assay type: physicochemical; conditions: XRPD, as generated by lyophilization; ITI-007 free base/excipient
Description: X-ray powder diffraction (XRPD): The X-ray powder diffraction studies are performed using a PANalytical X'Pert PRO MPD diffractometer using an incident beam of Cu radiation produced using an Optix long, fine-focus source. An elliptically graded multilayer mirror is used to focus Cu Kα X-ray radiation through the specimen and onto the detector. Prior to analysis, a silicon specimen is analyzed to verify the observed position of the Si (111) peak (consistent with the NIST-certified position, NIST SM 640e). A specimen of the sample is sandwiched between 3-micron thick films and analyzed in transmission geometry. A beam-stop, short antiscatter extension, and antiscatter knife edge is used to minimize the background generated by the air. Soller slits for the incident and diffracted beams are used to minimize broadening from axial divergence. Diffraction patterns are collected using a scanning position-sensitive detector (X'Celerator) located 240 mm from the specimen.

muscarinic receptors = conditions: cited from earlier work
[4] = molecular target: H1 histaminergic receptors (Homo sapiens, UniProt P35367); conditions: cited from earlier work
Sequence of H1 histaminergic receptors (P35367 whole entry): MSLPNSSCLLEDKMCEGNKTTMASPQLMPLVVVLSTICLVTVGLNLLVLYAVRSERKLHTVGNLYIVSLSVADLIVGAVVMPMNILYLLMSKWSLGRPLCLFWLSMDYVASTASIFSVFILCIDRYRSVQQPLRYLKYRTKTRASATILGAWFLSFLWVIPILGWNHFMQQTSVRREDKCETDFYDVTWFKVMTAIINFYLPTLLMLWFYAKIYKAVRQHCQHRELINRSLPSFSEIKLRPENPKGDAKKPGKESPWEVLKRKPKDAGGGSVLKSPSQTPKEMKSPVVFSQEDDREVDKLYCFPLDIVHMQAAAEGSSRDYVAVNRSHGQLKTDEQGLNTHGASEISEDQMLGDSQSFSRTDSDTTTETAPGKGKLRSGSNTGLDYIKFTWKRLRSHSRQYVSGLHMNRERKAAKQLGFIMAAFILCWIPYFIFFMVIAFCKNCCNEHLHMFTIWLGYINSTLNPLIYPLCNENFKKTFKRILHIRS

[5] = chemical stability of ITI-007 by HPLC over the seven-day study; assay type: physicochemical; conditions: 7 days at 40° C./75% RH, normalized to content before the study
5-HT2C receptors = molecular target: T1, 5-HT2C receptors (Homo sapiens, UniProt P28335); conditions: cited from earlier work
T1 sequence (P28335 33-458): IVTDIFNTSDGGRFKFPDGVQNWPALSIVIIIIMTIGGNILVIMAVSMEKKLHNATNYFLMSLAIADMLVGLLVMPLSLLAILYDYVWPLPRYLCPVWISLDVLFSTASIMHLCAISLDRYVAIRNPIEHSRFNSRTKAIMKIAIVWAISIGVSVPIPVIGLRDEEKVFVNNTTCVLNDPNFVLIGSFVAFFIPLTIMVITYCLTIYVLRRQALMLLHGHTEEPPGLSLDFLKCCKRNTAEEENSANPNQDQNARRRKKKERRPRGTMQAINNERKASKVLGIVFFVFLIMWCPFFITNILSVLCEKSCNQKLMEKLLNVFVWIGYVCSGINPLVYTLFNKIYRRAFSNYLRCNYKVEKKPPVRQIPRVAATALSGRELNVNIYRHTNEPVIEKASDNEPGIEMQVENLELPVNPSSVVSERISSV

[6] = mDSC glass transition of dispersions; assay type: physicochemical; conditions: single glass transition above 75° C., Yes/No
[7] = salt of U.S. Pat. No. 7,183,282

solubility ([1]; 2,2,2-trifluoroethanol (TFE), organic solvent or mixture) [mg/mL] | solubility ([1]; acetone, organic solvent or mixture) [mg/mL] | solubility ([1]; dioxane, organic solvent or mixture) [mg/mL] | solubility ([1]; ethanol, organic solvent or mixture) [mg/mL] | solubility ([1]; methanol, organic solvent or mixture) [mg/mL] | solubility ([1]; tert-butanol/water mixtures, aqueous with cosolvent or surfactant or cyclodextrin) [mg/mL] | X-ray Amorphous Solids? [3] | % ITI-007 change by HPLC [5] [%] | Tg > 75° C. [6] | Structure (SMILES) | stability in solution ([1]; solutions in TFE) | solubility in water ([2]; free base form) | binding (muscarinic receptors) | binding [4] | binding (5-HT2C receptors) | hygroscopicity [2, 7] | stability [2, 7]
> 50 | > 50 | > 50 | > 50 | > 50 | 5 to 50 (≈ 12.7 to 127 mM) | No | −5.97 | No | CN1CCN2c3c(cccc31)[C@@H]1CN(CCCC(=O)c3ccc(F)cc3)CC[C@@H]12 [ITI-007, 1-(4-fluoro-phenyl)-4-((6bR,10aS)-3-methyl-2,3,6b,9,10,10a-hexahydro-1H,7H-pyrido[3′,4′:4,5]pyrrolo[1,2,3-de]quinoxalin-8-yl)-butan-1-one] | rapidly discolor due to decomposition of the active | poor solubility in water | negligible binding | negligible binding | negligible binding |  | 
 |  |  |  |  |  |  |  |  | CN1CCN2c3c(cccc31)C1CN(CCCC(=O)c3ccc(F)cc3)CCC12.Cl (stereo not shown) [hydrochloride salt form of ITI-007] |  |  |  |  |  | hygroscopic | poor stability
